Experiments:
[1] = molecular target: T1, 5-HT reuptake sites (Rattus norvegicus, UniProt P31652); test: 5-HT uptake: displacement of [3H]citalopram from 5-HT reuptake sites, rat frontal cortical membranes; assay type: binding; details: for Ki: [3H]citalopram 1.3 nM, rat frontal cortical membranes, fit to data from three experiments; for inhibition at 1 µM: 10^−6 M test compound, single determination, [3H]citalopram
T1 construct: Frontal cortical tissue from the brains of male Charles River rats; from tissue; host or cells: rat frontal cortical membranes
Experimental: Frontal cortical tissue from the brains of male Charles River rats weighing 150-250 g was homogenised in ice-cold 50 mM Tris-HCl, pH 7.4 (when measured at 25° C.) containing 120 mM sodium chloride and 5 mM potassium chloride (Tris buffer; 1:30 w/v) and centrifuged at 40,000 g for 10 minutes. The supernatant was discarded and the pellet rehomogenised in Tris buffer, 1:60 w/v, and centrifuged at 40,000 g for 10 minutes. This step was repeated a further time. The final pellet was resuspended in 50 mM Tris-HCl, pH 7.4 containing 120 mM sodium chloride and 5 mM potassium chloride (equivalent to 3.125 mg wet weight of tissue/ml) and used immediately in the binding assay. All centrifugations were performed at 4° C.
Membranes (400 μl; equivalent to 1.25 mg wet weight of tissue/tube) were incubated with 50 μl [^3H]citalopram at a single concentration of 1.3 nM and 50 μl of distilled water (total binding) or 50 μl of test compound (at a single concentration of 10^−6 M or at 10 concentrations ranging from 10^−11-10^−3 M) or 50 μl of paroxetine (0.5 μM; non-specific binding) for 1 h at 27° C. Membrane bound radioactivity was recovered by filtration under vacuum through Skatron 11734 filters presoaked in 0.5% PEI using a Skatron Cell Harvester. Filters were then washed in ice-cold 50 mM Tris-HCl buffer, pH 7.4 (at 25° C., wash setting 9,9,0). The scored filter paper discs were punched out into vials, scintillation fluid added and radioactivity determined by liquid scintillation counting.
(§1) For each of these tests measuring the ability of compounds of Formula I to displace standard ligands from 5-HT1A receptors and 5-hydroxytryptamine (5-HT) and noradrenaline (NA) reuptake sites and muscarinic receptors in vitro, the percentage displacement of specific binding of tritiated ligand by 10^−6 M test compound was calculated in the following way.
(§2) Firstly, specific binding of tritiated ligand in the absence (A) and presence (B) of test compound was determined:
(§3) In the absence of compound: A(dpm)=Total binding (dpm)−Non-specific binding (dpm) In the presence of compound (10^−6 M): B(dpm)=Binding at 10^−6M (dpm)−Non-specific binding (dpm)
(§4) The specific binding of tritiated ligand in the presence (B) of compound was then converted to a percentage of specific binding of tritiated ligand in the absence (A) of compound: % Specific binding at 10^−6 M=B(dpm)/A(dpm)×100
(§5) The percentage displacement of specific binding of tritiated ligand by the test compound (10^−6 M) was then obtained by subtraction of the percentage specific binding in the presence of compound from the percentage specific binding in the absence of compound, which is taken as the maximum binding and so equals 100%:
(§6) % Displacement at 10^−6 M=100−% Specific binding at 10^−6 M.
(§7) In some cases, displacement curves were then produced for compounds which displaced ≧50% of specific binding of the tritiated ligand at 10^−6 M using a range of concentrations of the compound. The Ki was then calculated by simultaneous fitting using equations derived from the Feldman equations by robust non-linear regression to data from three experiments simultaneously (De Lean et al., 1978; Munson and Rodbard, 1980; Feldman, 1992). Munson P J and Rodbard D. Ligand: a versatile computerised approach for characterisation of ligand binding systems. Anal Biochem 1980; 107: 220. Feldman HA. Mathematical theory of complex ligand binding systems at equilibrium: some methods for parameter fitting. Anal Biochem 1992: 48, 317. De Lean A, Munson P J and Rodbard D. Simultaneous analysis of families of sigmoidal curves: application to bioassay, radioligand assay, and physiological dose-response curves. Am J Physiol 1978: 235 (2), E97-E102.
The results obtained in the above tests for 5-HT1A binding and 5-HT and NA uptake and muscarinic binding for the final products of Examples 1-39 hereinafter are given in Table 1 below. Kis are in nM. % Figures are for % displacement at 10^−6 M for a single determination.

[2] = molecular target: muscarinic receptors; test: Muscarinic binding: displacement of [3H]N-methylscopolamine, rat frontal cortical membranes; details: for Ki: [3H]N-methylscopolamine 0.15 nM, rat frontal cortical membranes; for Muscarinic % displacement at 10^−6 M: 10^−6 M test compound, single determination, [3H]N-methylscopolamine
Experimental: Frontal cortical tissue from the brains of male Charles River rats weighing 150-250 g was homogenised in ice-cold 20 mM HEPES buffer, pH 7.5 (measured at 25° C.) containing 100 mM sodium chloride and 10 mM magnesium chloride (1:10 w/v) using a Polytron PT3100 (speed setting 21,700 rpm, 3×5 seconds) and centrifuged at 49,500 g for 30 minutes at 4° C. The supernatant was discarded and the pellet rehomogenised in 20 mM HEPES buffer, pH 7.5 containing 100 mM sodium chloride and 10 mM magnesium chloride (equivalent to 12.5 mg wet weight of tissue/ml). Membranes were stored at −80° C. until required.
Membranes were thawed, diluted 1:10 in ice-cold 20 mM HEPES buffer, pH 7.5 containing 100 mM sodium chloride and 10 mM magnesium chloride and homogenised using a Polytron PT3100 as above. Diluted membranes (200 μl; equivalent to 0.25 mg wet weight of tissue/tube) were incubated with 200 μl of 20 mM HEPES buffer, pH 7.5 containing 100 mM sodium chloride and 10 mM magnesium chloride and 50 μl [^3H]N-methylscopolamine at a single concentration of 0.15 nM and 50 μl distilled water (total binding) or 50 μl test compound (at a single concentration of 10^−6 M or at 10 concentrations ranging from 10^−11-10^−3 M) or 50 μl atropine sulphate (1 μM; non-specific binding) for 30 min at 30° C. Membrane bound radioactivity was recovered by filtration under vacuum through Skatron 11734 filters using a Skatron cell harvester. Filters were rapidly washed with ice-cold 20 mM HEPES buffer, pH 7.5 (wash 1,2 at setting 5,5). The scored filter paper discs were punched out into vials, scintillation fluid added and radioactivity determined by liquid scintillation counting.
as §1, §2, §3, §4, §5, §6
as §7, with “E97-E102. […]” for “E97-E102.”

T1 sequence (P31652 whole entry): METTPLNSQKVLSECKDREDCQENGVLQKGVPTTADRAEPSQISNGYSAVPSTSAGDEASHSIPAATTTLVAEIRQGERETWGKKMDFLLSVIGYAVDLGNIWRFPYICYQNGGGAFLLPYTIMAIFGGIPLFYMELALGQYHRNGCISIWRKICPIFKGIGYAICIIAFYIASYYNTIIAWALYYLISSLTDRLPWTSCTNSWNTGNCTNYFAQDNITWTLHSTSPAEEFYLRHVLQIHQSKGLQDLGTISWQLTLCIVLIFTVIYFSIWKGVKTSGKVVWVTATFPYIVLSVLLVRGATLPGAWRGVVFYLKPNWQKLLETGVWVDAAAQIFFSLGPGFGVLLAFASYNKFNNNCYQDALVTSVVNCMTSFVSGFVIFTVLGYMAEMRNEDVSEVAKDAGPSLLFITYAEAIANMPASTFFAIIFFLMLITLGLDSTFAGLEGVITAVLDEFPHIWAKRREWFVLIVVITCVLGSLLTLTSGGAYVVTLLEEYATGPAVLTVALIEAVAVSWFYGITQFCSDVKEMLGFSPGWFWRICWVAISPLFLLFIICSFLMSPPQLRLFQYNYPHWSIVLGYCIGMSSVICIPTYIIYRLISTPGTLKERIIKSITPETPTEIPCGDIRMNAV

Ki [1] [nM]	SMILES	melting point [°C]	Ki [2] [nM]	inhibition at 1 µM [1] [%]	Muscarinic % displacement at 10^−6 M [2] [%]
53	Br.c1cc(C2=C(C3CC3)SC3=NCCN32)c2ccsc2c1 [Example 34, 3-(benzo[b]thiophen-4-yl)-2-cyclopropyl-5,6-dihydroimidazo[2,1-b]thiazole hydrobromide]	213 to 214	76		
	Br.CC1=C(c2cc3c(Cl)cccc3s2)N2CCCN=C2S1 [Example 17, 3-(4-chlorobenzo[b]thiophen-2-yl)-2-methyl-6,7-dihydro-5H-thiazolo[3,2-a]pyrimidine hydrobromide]	236 to 238		84	29
	Br.CC1=C(c2cc3c(C)cccc3s2)N2CCN=C2S1 [Example 16, 2-methyl-3-(4-methylbenzo[b]thiophen-2-yl)-5,6-dihydroimidazo[2,1-b]thiazole hydrobromide]	201 to 204		93	0
39	CSC1=C(c2cc3ccccc3s2)N2CCN=C2S1 [Example 19, 3-(benzo[b]thiophen-2-yl)-2-(methylthio)-5,6-dihydroimidazo[2,1-b]thiazole]	95 to 97			2
148	OCC1=C(c2ccc3sccc3c2)N2CCN=C2S1 [Example 28, [3-(benzo[b]thiophen-5-yl)-5,6-dihydroimidazo[2,1-b]-thiazol-2-yl]methanol]	149 to 150			−8
	Br.CCC1=C(c2cc3c(Cl)cccc3s2)N2CCN=C2S1 [Example 18, 3-(4-chlorobenzo[b]thiophen-2-yl)-2-ethyl-5,6-dihydroimidazo[2,1-b]thiazole hydrobromide]	187 to 189		96	12

SMILES	Ki [1] [nM]	melting point [°C]	Ki [2] [nM]	inhibition at 1 µM [1] [%]	Muscarinic % displacement at 10^−6 M [2] [%]
CC(C)C1=C(c2cccc3sccc23)N2CCN=C2S1.O=C(O)/C=C/C(=O)O [Example 35, 3-(benzo[b]thiophen-4-yl)-2-(1-methylethyl)-5,6-dihydroimidazo[2,1-b]thiazole fumarate]	83	175 to 178	492		

Reference: patent US6900216B2, “Dihydroimidazo[2,1-b]thiazole and dihydro-5h-thiazolo[3,2-A]pyrimidines as antidepressant agents” (Knoll GmbH, priority 2000, dated 2005)
